Assay results reported in the supplement of paper PMC10307832.

Tests used:
Assay in all cases: relative viability (nuclei count vs DMSO), 5 days (fraction); higher = more cells survive
201T = system: 201T
Summary of the method: (§1)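 One day after seeding in 1536-well plates, lung cancer cell lines were dosed by pin tool. Dosing was either single-drug or a fixed anchor-drug dose plus five library-drug doses (not always all listed) in √10 steps. After 5 days, nuclei were stained in one fix-and-stain step and counted on 4× images, and relative viability is the nuclei count of treated wells over that of vehicle wells, given as the median of duplicate plates.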

BEN = system: BEN
Summary of the method: as §1

CAL-12T = system: CAL-12T
Summary of the method: as §1

COR-L 105 = system: COR-L 105
Summary of the method: as §1

EKVX = system: EKVX
Summary of the method: as §1

HARA = system: HARA
Summary of the method: as §1

HCC-366 = system: HCC-366
Summary of the method: as §1

LK-2 = system: LK-2
Summary of the method: as §1

LOU-NH91 = system: LOU-NH91
Summary of the method: as §1

NCI-H1437 = system: NCI-H1437
Summary of the method: as §1

NCI-H1650 = system: NCI-H1650
Summary of the method: as §1

NCI-H1666 = system: NCI-H1666
Summary of the method: as §1

NCI-H2009 = system: NCI-H2009
Summary of the method: as §1

NCI-H2170 = system: NCI-H2170
Summary of the method: as §1

NCI-H3122 = system: NCI-H3122
Summary of the method: as §1

NCI-H441 = system: NCI-H441
Summary of the method: as §1

NCI-H460 = system: NCI-H460
Summary of the method: as §1

NCI-H727 = system: NCI-H727
Summary of the method: as §1

PC-14 = system: PC-14
Summary of the method: as §1

O=c1cc(-c2cccc3c2Sc2ccccc2S3)oc(N2CCOCC2)c1 + CC1(C)CCC(c2ccc(Cl)cc2)=C(CN2CCN(c3ccc(C(=O)NS(=O)(=O)c4ccc(N[C@H](CCN5CCOCC5)CSc5ccccc5)c(S(=O)(=O)C(F)(F)F)c4)cc3)CC2)C1 [Navitoclax] (partner 0.5 µM)
relative viability (201T; first compound 0.08 µM): 1.15
relative viability (201T; first compound 0.253 µM): 1.2
relative viability (201T; first compound 0.8 µM): 1.23
relative viability (201T; first compound 2.53 µM): 1.2
relative viability (201T; first compound 8 µM): 1.15
relative viability (BEN; first compound 0.08 µM): 0.0636
relative viability (BEN; first compound 0.253 µM): 0.0609
relative viability (BEN; first compound 0.8 µM): 0.0602
relative viability (BEN; first compound 2.53 µM): 0.0598
relative viability (BEN; first compound 8 µM): 0.0681
relative viability (CAL-12T; first compound 0.08 µM): 1.16
relative viability (CAL-12T; first compound 0.253 µM): 1.26
relative viability (CAL-12T; first compound 0.8 µM): 1.48
relative viability (CAL-12T; first compound 2.53 µM): 1.2
relative viability (CAL-12T; first compound 8 µM): 1.31
relative viability (COR-L 105; first compound 0.08 µM): 0.649
relative viability (COR-L 105; first compound 0.253 µM): 0.849
relative viability (COR-L 105; first compound 0.8 µM): 0.678
relative viability (COR-L 105; first compound 2.53 µM): 0.642
relative viability (COR-L 105; first compound 8 µM): 0.993
relative viability (EKVX; first compound 0.08 µM): 0.975
relative viability (EKVX; first compound 0.253 µM): 0.998
relative viability (EKVX; first compound 0.8 µM): 0.888
relative viability (EKVX; first compound 2.53 µM): 0.954
relative viability (EKVX; first compound 8 µM): 0.965
relative viability (HARA; first compound 0.08 µM): 1.16
relative viability (HARA; first compound 0.253 µM): 1.36
relative viability (HARA; first compound 0.8 µM): 1.01
relative viability (HARA; first compound 2.53 µM): 1.11
relative viability (HARA; first compound 8 µM): 1.2
relative viability (HCC-366; first compound 0.08 µM): 0.987
relative viability (HCC-366; first compound 0.253 µM): 1.19
relative viability (HCC-366; first compound 0.8 µM): 1.07
relative viability (HCC-366; first compound 2.53 µM): 0.98
relative viability (HCC-366; first compound 8 µM): 0.996
relative viability (LK-2; first compound 0.08 µM): 0.861
relative viability (LK-2; first compound 0.253 µM): 1.03
relative viability (LK-2; first compound 0.8 µM): 0.992
relative viability (LK-2; first compound 2.53 µM): 0.808
relative viability (LK-2; first compound 8 µM): 1.43
relative viability (LOU-NH91; first compound 0.08 µM): 0.711
relative viability (LOU-NH91; first compound 0.253 µM): 0.68
relative viability (LOU-NH91; first compound 0.8 µM): 0.573
relative viability (LOU-NH91; first compound 2.53 µM): 0.59
relative viability (LOU-NH91; first compound 8 µM): 0.705
relative viability (NCI-H1437; first compound 0.08 µM): 1.08
relative viability (NCI-H1437; first compound 0.253 µM): 1.58
relative viability (NCI-H1437; first compound 0.8 µM): 1.09
relative viability (NCI-H1437; first compound 2.53 µM): 1.11
relative viability (NCI-H1437; first compound 8 µM): 1.39
relative viability (NCI-H1650; first compound 0.08 µM): 1.05
relative viability (NCI-H1650; first compound 0.253 µM): 1.21
relative viability (NCI-H1650; first compound 0.8 µM): 1.12
relative viability (NCI-H1650; first compound 2.53 µM): 1.17
relative viability (NCI-H1650; first compound 8 µM): 1.38
relative viability (NCI-H1666; first compound 0.08 µM): 0.988
relative viability (NCI-H1666; first compound 0.253 µM): 0.976
relative viability (NCI-H1666; first compound 0.8 µM): 0.952
relative viability (NCI-H1666; first compound 2.53 µM): 0.868
relative viability (NCI-H1666; first compound 8 µM): 0.799
relative viability (NCI-H2009; first compound 0.08 µM): 1.22
relative viability (NCI-H2009; first compound 0.253 µM): 1.2
relative viability (NCI-H2009; first compound 0.8 µM): 1.21
relative viability (NCI-H2009; first compound 2.53 µM): 1.05
relative viability (NCI-H2009; first compound 8 µM): 1.11
relative viability (NCI-H2170; first compound 0.08 µM): 0.693
relative viability (NCI-H2170; first compound 0.253 µM): 0.749
relative viability (NCI-H2170; first compound 0.8 µM): 0.642
relative viability (NCI-H2170; first compound 2.53 µM): 0.55
relative viability (NCI-H2170; first compound 8 µM): 0.519
relative viability (NCI-H3122; first compound 0.08 µM): 1.04
relative viability (NCI-H3122; first compound 0.253 µM): 1.01
relative viability (NCI-H3122; first compound 0.8 µM): 1.03
relative viability (NCI-H3122; first compound 2.53 µM): 1.02
relative viability (NCI-H3122; first compound 8 µM): 1.03
relative viability (NCI-H441; first compound 0.08 µM): 1.14
relative viability (NCI-H441; first compound 0.253 µM): 0.909
relative viability (NCI-H441; first compound 0.8 µM): 0.523
relative viability (NCI-H441; first compound 2.53 µM): 0.776
relative viability (NCI-H441; first compound 8 µM): 0.762
relative viability (NCI-H460; first compound 0.08 µM): 1.24
relative viability (NCI-H460; first compound 0.8 µM): 1.42
relative viability (NCI-H460; first compound 2.53 µM): 1.23
relative viability (NCI-H727; first compound 0.253 µM): 0.356
relative viability (NCI-H727; first compound 2.53 µM): 0.369
relative viability (NCI-H727; first compound 8 µM): 0.494
relative viability (PC-14; first compound 0.08 µM): 1.04
relative viability (PC-14; first compound 0.253 µM): 1.31
relative viability (PC-14; first compound 0.8 µM): 1.01
relative viability (PC-14; first compound 2.53 µM): 0.946
relative viability (PC-14; first compound 8 µM): 1.05
